Laboratory results as given in patent publication US11780826B2 (Amgen Inc., priority 2017, dated 2023).

Tested on: Bovine cardiac myofibrils
Assay: In vitro model of dose-dependent myofibril ATPase modulation (AC1.4, pyruvate kinase/lactate dehydrogenase-coupled ATPase assay at pCa25)
Assay type: biochemical
Details: concentration at which ATPase activity was 1.4-fold higher than the bottom of the dose curve, mean of a minimum of two independent tests
Method in brief: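 Bovine cardiac myofibrils, detergent-treated; 0.25-1.0 mg/ml. Buffer: K-PIPES 12 mM, MgCl2 2 mM, DTT 1 mM, BSA 0.1 mg/ml, pH 6.80, 22° C; Ca2+ set by EGTA/CaCl2. ATP 1 mM, NADH/PEP-coupled, A340. 4-parameter fit; n≥2.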

Structure (SMILES) | AC1.4 [µM]
CC1(O)CN(S(=O)(=O)N2CCC[C@H](C(=O)N3CCC[C@@H]3C(=O)NCc3ccc(C(F)(F)F)cc3F)C2)C1 [Example 669, N-(2-fluoro-4-(trifluoromethyl)benzyl)-1-(((3S)-1-((3-hydroxy-3-methyl-1-azetidinyl)sulfonyl)-3-piperidinyl)carbonyl)-D-prolinamide] | 4.727
O=C(NC1CN(S(=O)(=O)N2CCC[C@H](C(=O)N3CCC[C@@H]3C(=O)NCc3ccc(C(F)(F)F)cc3)C2)C1)C1CC1 [Example 710, 1-(((3S)-1-((3-((cyclopropylcarbonyl)amino)-1-azetidinyl)sulfonyl)-3-piperidinyl)carbonyl)-N-(4-(trifluoromethyl)benzyl)-D-prolinamide] | 5.887
N#CC1CN(S(=O)(=O)c2cccc(C(=O)N3CCC[C@@H]3C(=O)NCc3ccc(C4CC4)cc3)c2)C1 [Example 283, 1-((3-((3-cyano-1-azetidinyl)sulfonyl)phenyl)carbonyl)-N-(4-cyclopropylbenzyl)-D-prolinamide] | 0.7288
COC(=O)CNS(=O)(=O)c1cccc(C(=O)N2CCC[C@@H]2C(=O)NCc2ccc(C(F)(F)F)cc2)c1 [Example 764, methyl N-((3-(((2R)-2-((4-(trifluoromethyl)benzyl)carbamoyl)-1-pyrrolidinyl)carbonyl)phenyl)sulfonyl)glycinate] | 7.912
C[C@@H]1CCN(S(=O)(=O)N2CC(C#N)C2)C[C@H]1C(=O)N1CCC[C@@H]1C(=O)NCc1ccc(C(F)(F)F)cc1 [Example 82, 1-(((3S,4R)-1-((3-cyano-1-azetidinyl)sulfonyl)-4-methyl-3-piperidinyl)carbonyl)-N-(4-(trifluoromethyl)benzyl)-D-prolinamide] | 0.1085
N#CC1CN(S(=O)(=O)c2cccc(C(=O)N3CCC[C@@H]3C(=O)NCc3ccccc3Cl)c2)C1 [Example 396, N-(2-chlorobenzyl)-1-((3-((3-cyano-1-azetidinyl)sulfonyl)phenyl)carbonyl)-D-prolinamide] | 1.3975
CC(C)[C@@H](NC(=O)[C@H]1CCCN1C(=O)[C@H]1CCCN(S(=O)(=O)N2CC(C#N)C2)C1)c1ccc(C(F)(F)F)cc1F [Example 9, 1-(((3S)-1-((3-cyano-1-azetidinyl)sulfonyl)-3-piperidinyl)carbonyl)-N-((1R)-1-(2-fluoro-4-(trifluoromethyl)phenyl)-2-methylpropyl)-D-prolinamide] | 0.01995
N#CC1CN(S(=O)(=O)N2CCC[C@H](C(=O)N3[C@@H](C(=O)NCc4ccc(C(F)(F)F)nc4)C[C@H]4C[C@H]43)C2)C1 [Example 326] | 0.8885
O=C(N[C@@H](c1cc(F)c(C(F)(F)F)cc1F)[C@H]1C[C@@H](O)C1)[C@H]1C[C@H]2C[C@H]2N1C(=O)c1ccnc(C(F)F)c1 (stereo in doubt) [Example 830, (1R,3R,5R)-N-((R)-(2,5-difluoro-4-(trifluoromethyl)phenyl)((1s,3S)-3-hydroxycyclobutyl)methyl)-2-(2-(difluoromethyl)isonicotinoyl)-2-azabicyclo[3.1.0]hexane-3-carboxamide] | 0.6694
C[C@@H](NC(=O)[C@H]1CCCN1C(=O)[C@H]1CCCN(S(=O)(=O)N2CC(C#N)C2)C1)c1ccc(F)cc1OC(F)F [Example 698, 1-(((3S)-1-((3-cyano-1-azetidinyl)sulfonyl)-3-piperidinyl)carbonyl)-N-((1R)-1-(2-(difluoromethoxy)-4-fluorophenyl)ethyl)-D-prolinamide] | 5.5675
C[C@H](O)[C@@H](NC(=O)[C@H]1C[C@H]2C[C@H]2N1C(=O)c1cccc(S(C)(=O)=O)c1)c1cc(F)c(Cl)cc1F [Example 405, (1R,3R,5R)-N-((1S,2S)-1-(4-chloro-2,5-difluorophenyl)-2-hydroxypropyl)-2-(3-(methylsulfonyl)benzoyl)-2-azabicyclo[3.1.0]hexane-3-carboxamide] | 1.4065
C[C@@H](NC(=O)[C@H]1CCCN1C(=O)c1cccc(S(=O)(=O)N2CC(C)(O)C2)c1)c1ccc(C(F)(F)F)cc1 [Example 466, 1-(3-((3-hydroxy-3-methyl-1-azetidinyl)sulfonyl)benzoyl)-N-((1R)-1-(4-(trifluoromethyl)phenyl)ethyl)-D-prolinamide] | 1.961
Cc1cccc(F)c1CNC(=O)[C@H]1CCCN1C(=O)[C@H]1CCCN(S(=O)(=O)N2CC(C#N)C2)C1 [Example 607, 1-(((3S)-1-((3-cyano-1-azetidinyl)sulfonyl)-3-piperidinyl)carbonyl)-N-(2-fluoro-6-methylbenzyl)-D-prolinamide] | 3.714
C[C@@H](NC(=O)[C@H]1CCCN1C(=O)[C@H]1CCCN(S(=O)(=O)N2CC(C)(O)C2)C1)c1ccc(C(F)(F)F)cc1F [Example 597, N-((1R)-1-(2-fluoro-4-(trifluoromethyl)phenyl)ethyl)-1-(((3S)-1-((3-hydroxy-3-methyl-1-azetidinyl)sulfonyl)-3-piperidinyl)carbonyl)-D-prolinamide] | 3.5295
Cc1ccc(CNC(=O)[C@H]2CCCN2C(=O)[C@H]2CCCN(S(=O)(=O)N3CC(C#N)C3)C2)c(C)c1 [Example 256, 1-(((3S)-1-((3-cyano-1-azetidinyl)sulfonyl)-3-piperidinyl)carbonyl)-N-(2,4-dimethylbenzyl)-D-prolinamide] | 0.632
CC1(C)CN(S(=O)(=O)c2cccc(C(=O)N3CCC[C@@H]3C(=O)NCc3ccc(C(F)(F)F)cc3)c2)C1 [Example 234, 1-((3-((3,3-dimethyl-1-azetidinyl)sulfonyl)phenyl)carbonyl)-N-(4-(trifluoromethyl)benzyl)-D-prolinamide] | 0.5321
N#CC1(c2cccc(C(=O)N3CCC[C@@H]3C(=O)N[C@@H](c3ccc(C(F)(F)F)cc3F)C3CC3)c2)CC1 [Example 604, 1-(3-(l-cyanocyclopropyl)benzoyl)-N-((R)-cyclopropyl(2-fluoro-4-(trifluoromethyl)phenyl)methyl)-D-prolinamide] | 3.679
CC[C@H](NC(=O)[C@H]1CCCN1C(=O)c1cccc(S(=O)(=O)N2CC(C#N)C2)c1)c1ccc(C(F)(F)F)cc1 [Example 85, 1-(3-((3-cyano-1-azetidinyl)sulfonyl)benzoyl)-N-((1S)-1-(4-(trifluoromethyl)phenyl)propyl)-D-prolinamide] | 0.1157
N#CC1CN(S(=O)(=O)N2CCC[C@H](C(=O)N3CCC[C@@H]3C(=O)NCc3ccc(Cl)c(F)c3)C2)C1 [Example 51, N-(4-chloro-3-fluorobenzyl)-1-(((3S)-1-((3-cyano-1-azetidinyl)sulfonyl)-3-piperidinyl)carbonyl)-D-prolinamide] | 0.0553
COc1ccc(S(C)(=O)=O)cc1C(=O)N1[C@@H](C(=O)N[C@@H](c2ccc(C(F)(F)F)cc2F)C2CC2)C[C@H]2C[C@H]21 [Example 612, (1R,3R,5R)-N-((R)-cyclopropyl(2-fluoro-4-(trifluoromethyl)phenyl)methyl)-2-(2-methoxy-5-(methylsulfonyl)benzoyl)-2-azabicyclo[3.1.0]hexane-3-carboxamide] | 3.527
N#CC1CN(S(=O)(=O)N2CCC[C@H](C(=O)N3CCC[C@@H]3C(=O)NCc3cc(C(F)(F)F)ccc3F)C2)C1 [Example 674, 1-(((3S)-1-((3-cyano-1-azetidinyl)sulfonyl)-3-piperidinyl)carbonyl)-N-(2-fluoro-5-(trifluoromethyl)benzyl)-D-prolinamide] | 4.9025
O=C(NCc1ccc(C(F)(F)F)cc1)[C@H]1CCCN1C(=O)[C@H]1CCCN(S(=O)(=O)N2CC(n3cccn3)C2)C1 [Example 582, 1-(((3S)-1-((3-(1H-pyrazol-1-yl)-1-azetidinyl)sulfonyl)-3-piperidinyl)carbonyl)-N-(4-(trifluoromethyl)benzyl)-D-prolinamide] | 3.371
CS(=O)(=O)c1cccc(C(=O)N2[C@@H](C(=O)N[C@@H](c3ccc(C(F)(F)F)cc3)C3COC3)C[C@H]3C[C@H]32)c1 [Example 375, (1R,3R,5R)-2-(3-(methylsulfonyl)benzoyl)-N-((R)-3-oxetanyl(4-(trifluoromethyl)phenyl)methyl)-2-azabicyclo[3.1.0]hexane-3-carboxamide] | 1.2153
NS(=O)(=O)c1cccc(C(=O)N2CC(F)(F)C[C@@H]2C(=O)N[C@@H](c2ccc(C(F)(F)F)cc2F)C2CC2)c1 [Example 446, N-((R)-cyclopropyl(2-fluoro-4-(trifluoromethyl)phenyl)methyl)-4,4-difluoro-1-(3-sulfamoylbenzoyl)-D-prolinamide] | 1.826
COc1ccc(CNC(=O)[C@H]2CCCN2C(=O)[C@H]2CCCN(S(=O)(=O)N3CC(C#N)C3)C2)cc1F [Example 457, 1-(((3S)-1-((3-cyano-1-azetidinyl)sulfonyl)-3-piperidinyl)carbonyl)-N-(3-fluoro-4-methoxybenzyl)-D-prolinamide] | 1.8865
CC(C)C[C@@H](NC(=O)[C@H]1CCCN1C(=O)[C@H]1CCCN(S(=O)(=O)N2CC(C#N)C2)C1)c1ccc(C(F)(F)F)cc1 [Example 68, 1-(((3S)-1-((3-cyano-1-azetidinyl)sulfonyl)-3-piperidinyl)carbonyl)-N-((1R)-3-methyl-1-(4-(trifluoromethyl)phenyl)butyl)-D-prolinamide] | 0.0784
O=C(N[C@@H](c1ccc(C(F)(F)F)c(F)c1)C1CC1)[C@H]1C[C@H]2C[C@H]2N1C(=O)c1cccc(S(=O)(=O)C2CC2)c1 [Example 310, (1R,3R,5R)—N—((R)-cyclopropyl(3-fluoro-4-(trifluoromethyl)phenyl)methyl)-2-(3-(cyclopropylsulfonyl)benzoyl)-2-azabicyclo[3.1.0]hexane-3-carboxamide] | 0.8061
O=C(NCc1ccc(C(F)(F)F)cc1)[C@H]1CCCN1C(=O)[C@H]1CCCN(S(=O)(=O)N2CC(F)(C(F)(F)F)C2)C1 [Example 760, 1-(((3S)-1-((3-fluoro-3-(trifluoromethyl)-1-azetidinyl)sulfonyl)-3-piperidinyl)carbonyl)-N-(4-(trifluoromethyl)benzyl)-D-prolinamide] | 7.661
